Data on four molecules can be found in ChEMBL document CHEMBL5143607, “Discovery and structure-activity relationships of a novel oxazolidinone class of bacterial type II topoisomerase inhibitors” (Bioorg Med Chem Lett, 2022).

The structures appear in SMILES notation. pIC50: −log10 of the molar value. ≈ marks a conversion by molar mass, not a printed value.

For series [1], the target named is DNA gyrase (Escherichia coli, UniProt P0AES4+P0AES6). Nature of the series: Inhibition of Escherichia coli DNA gyrase supercoiling activity. Format: protein-complex assay.
Series [2] in a line: Inhibition of Escherichia coli topoisomerase 4 assessed as reduction in decatenation.
Series [3] can be described thus: Cytotoxicity against human HepG2 cells assessed as reduction in cell viability for 24 hrs by Celltiter-Glo assay. Format: toxicity, cell-based. (ATP-based viability assays read luminescence as a measure of living cells.)
Series [4] relates to Acinetobacter baumannii. Briefly: Antibacterial activity against Acinetobacter baumannii NCTC 13420 assessed as bacterial growth inhibition by CLSI protocol based assay. Format: functional.
The subject of series [5] is Klebsiella pneumoniae. Briefly: Antibacterial activity against Klebsiella pneumoniae ATCC 700603 assessed as bacterial growth inhibition by CLSI protocol based assay. Format: functional.
Series [6] deals with Pseudomonas aeruginosa. Briefly: Antibacterial activity against Pseudomonas aeruginosa ATCC 27853 assessed as bacterial growth inhibition by CLSI protocol based assay. In kind it is functional.
For series [7], the system named is Escherichia coli. Nature of the series: Antibacterial activity against Escherichia coli W4573 assessed as bacterial growth inhibition by CLSI protocol based assay. In kind it is functional.
Series [8] has as its system Escherichia coli. Nature of the series: Antibacterial activity against Escherichia coli N43 assessed as bacterial growth inhibition by CLSI protocol based assay. In kind it is functional.
The subject of series [9] is Staphylococcus aureus. Nature of the series: Antibacterial activity against Staphylococcus aureus ATCC 29213 assessed as bacterial growth inhibition by CLSI protocol based assay. In kind it is functional.
The target in series [10] is Voltage-gated inwardly rectifying potassium channel KCNH2 (Homo sapiens, UniProt Q12809). Briefly: Inhibition of human ERG by Ionworks electrophysiology assay. Format: toxicity.
Sequence of Voltage-gated inwardly rectifying potassium channel KCNH2 (Q12809 whole entry): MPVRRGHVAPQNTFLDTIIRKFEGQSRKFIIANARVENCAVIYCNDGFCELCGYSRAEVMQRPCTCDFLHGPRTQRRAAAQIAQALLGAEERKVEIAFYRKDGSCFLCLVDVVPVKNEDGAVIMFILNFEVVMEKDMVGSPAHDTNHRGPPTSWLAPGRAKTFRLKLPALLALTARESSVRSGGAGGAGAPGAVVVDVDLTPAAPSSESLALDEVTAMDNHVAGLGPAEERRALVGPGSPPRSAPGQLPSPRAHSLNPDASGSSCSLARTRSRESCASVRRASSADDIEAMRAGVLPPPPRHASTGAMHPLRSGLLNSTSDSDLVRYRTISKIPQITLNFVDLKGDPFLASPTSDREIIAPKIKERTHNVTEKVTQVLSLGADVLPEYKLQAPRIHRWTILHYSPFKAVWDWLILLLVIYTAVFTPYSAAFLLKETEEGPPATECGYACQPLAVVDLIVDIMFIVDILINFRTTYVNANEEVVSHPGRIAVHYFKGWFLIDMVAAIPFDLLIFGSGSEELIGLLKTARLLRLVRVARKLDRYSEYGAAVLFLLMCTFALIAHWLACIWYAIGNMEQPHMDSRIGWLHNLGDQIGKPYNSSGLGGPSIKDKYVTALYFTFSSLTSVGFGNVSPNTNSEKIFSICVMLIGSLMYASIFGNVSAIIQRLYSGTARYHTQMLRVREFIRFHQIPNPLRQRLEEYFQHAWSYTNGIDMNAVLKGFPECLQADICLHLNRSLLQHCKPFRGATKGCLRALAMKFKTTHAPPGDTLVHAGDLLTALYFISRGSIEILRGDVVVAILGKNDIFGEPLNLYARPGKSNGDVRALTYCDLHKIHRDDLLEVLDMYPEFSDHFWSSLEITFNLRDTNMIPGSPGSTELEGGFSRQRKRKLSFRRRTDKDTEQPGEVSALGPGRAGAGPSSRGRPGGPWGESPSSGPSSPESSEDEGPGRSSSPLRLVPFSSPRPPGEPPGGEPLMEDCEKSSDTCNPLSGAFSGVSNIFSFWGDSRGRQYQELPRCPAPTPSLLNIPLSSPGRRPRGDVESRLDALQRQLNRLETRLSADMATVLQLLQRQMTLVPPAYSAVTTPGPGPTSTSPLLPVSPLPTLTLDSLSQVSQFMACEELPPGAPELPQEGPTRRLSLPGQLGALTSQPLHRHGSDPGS
A short description of series [11]: Lipophilicity, logD of the compound by shake flask assay. In kind it is physicochemical. The following applies: octanol/water.
Series [12] can be described thus: Intrinsic clearance in mouse liver microsomes in presence of NADPH and measured upto 45 mins. Format: ADME, Microsome. Particulars: read-out: CLH. (In general: Liver microsomes are vesicles of endoplasmic reticulum, rich in cytochrome P450 enzymes.)
Series [13] in a line: Intrinsic clearance in human liver microsomes in presence of NADPH and measured upto 45 mins. In kind it is ADME, Microsome. Particulars: read-out: CLH.
A short description of series [14]: Kinetic solubility of compound. In kind it is physicochemical. Particulars: read-out: Kinetic_solubility.
Series [15] can be described thus: Plasma protein binding in mouse assessed as free fraction by equilibrium dialysis assay. In kind it is ADME, cell-free.
Series [16] has as its target DNA topoisomerase 2-alpha (Homo sapiens, UniProt P11388). Briefly: Inhibition of human topoisomerase 2 assessed as reduction in decatenation.
For series [17], the system named is Escherichia coli. Nature of the series: Resistance development in Escherichia coli ATCC25922 assessed as spontaneous resistance frequency at 4 times MIC by resistance development assay. Format: functional.
For series [18], the system named is Escherichia coli. Nature of the series: Antibacterial activity against Escherichia coli ATCC25922 assessed as bacterial growth inhibition by CLSI protocol based assay. Format: functional.
A short description of series [19]: Protein binding in mouse plasma by equilibrium dialysis assay. In kind it is ADME, cell-free. Particulars: read-out: PPB (converted). (In equilibrium dialysis only unbound substance equilibrates across the membrane.)
A short description of series [20]: Protein binding in human plasma by equilibrium dialysis assay. In kind it is ADME, cell-free. Particulars: read-out: PPB (converted).

Sequence of DNA topoisomerase 2-alpha (P11388 whole entry): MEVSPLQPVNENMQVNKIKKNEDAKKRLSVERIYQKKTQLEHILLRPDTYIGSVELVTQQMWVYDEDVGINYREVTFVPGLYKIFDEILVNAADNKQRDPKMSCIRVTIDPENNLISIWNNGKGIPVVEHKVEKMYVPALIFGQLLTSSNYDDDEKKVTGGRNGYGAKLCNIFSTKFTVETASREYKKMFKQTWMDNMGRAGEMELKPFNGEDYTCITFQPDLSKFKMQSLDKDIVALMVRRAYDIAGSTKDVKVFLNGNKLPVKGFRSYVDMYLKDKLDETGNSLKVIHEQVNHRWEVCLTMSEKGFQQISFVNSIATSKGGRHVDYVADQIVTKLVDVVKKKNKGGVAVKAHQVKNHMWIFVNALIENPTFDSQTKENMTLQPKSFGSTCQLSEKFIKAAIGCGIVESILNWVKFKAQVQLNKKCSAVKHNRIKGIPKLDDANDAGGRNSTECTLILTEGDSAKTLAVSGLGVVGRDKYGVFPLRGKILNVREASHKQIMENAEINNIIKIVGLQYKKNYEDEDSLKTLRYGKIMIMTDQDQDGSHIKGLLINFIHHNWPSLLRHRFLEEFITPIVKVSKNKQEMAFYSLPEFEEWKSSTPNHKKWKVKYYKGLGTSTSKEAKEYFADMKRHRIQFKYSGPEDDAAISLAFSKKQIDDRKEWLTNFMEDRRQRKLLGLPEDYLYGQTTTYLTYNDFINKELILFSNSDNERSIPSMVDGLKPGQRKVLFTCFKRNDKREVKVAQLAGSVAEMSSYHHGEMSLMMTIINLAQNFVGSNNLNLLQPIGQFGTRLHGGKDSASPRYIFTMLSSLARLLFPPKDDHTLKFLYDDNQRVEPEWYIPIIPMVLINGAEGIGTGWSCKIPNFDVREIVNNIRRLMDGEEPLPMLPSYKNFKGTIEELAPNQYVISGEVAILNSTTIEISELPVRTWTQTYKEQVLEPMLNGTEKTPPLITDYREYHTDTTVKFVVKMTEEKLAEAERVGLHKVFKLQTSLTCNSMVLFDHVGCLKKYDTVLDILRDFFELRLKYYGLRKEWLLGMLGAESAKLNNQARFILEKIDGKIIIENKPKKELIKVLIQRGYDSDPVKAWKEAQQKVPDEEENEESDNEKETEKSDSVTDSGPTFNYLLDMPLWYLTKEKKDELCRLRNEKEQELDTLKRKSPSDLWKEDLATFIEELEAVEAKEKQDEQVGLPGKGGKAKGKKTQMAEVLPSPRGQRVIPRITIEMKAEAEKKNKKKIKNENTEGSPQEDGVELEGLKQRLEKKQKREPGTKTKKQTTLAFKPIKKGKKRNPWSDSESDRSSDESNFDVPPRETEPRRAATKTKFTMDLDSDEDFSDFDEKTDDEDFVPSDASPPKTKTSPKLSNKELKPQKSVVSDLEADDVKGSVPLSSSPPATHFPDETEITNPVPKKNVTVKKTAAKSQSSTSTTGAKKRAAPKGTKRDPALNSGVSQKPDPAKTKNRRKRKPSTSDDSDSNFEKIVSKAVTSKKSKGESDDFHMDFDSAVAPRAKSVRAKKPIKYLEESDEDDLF

As a reminder, the pIC50 is the negative decadic logarithm of the IC50, by convention in mol/L. The term IC50 denotes the concentration that inhibits the measured activity by half. The MIC is the lowest concentration that inhibits growth of the organism. The logD is lipophilicity at a set pH, counting ionised and neutral species. A higher logD goes with a more lipophilic compound. Take `N#Cc1cnc2ccc(=O)n(CCCN[C@H]3CC[C@H]4[C@H](C3)OC(=O)N4c3ccc4c(n3)NC(=O)CO4)c2c1`: the pIC50 is 6.47 in [1], 5.37 in series [2], under 4.00 in series [10] and under 4.00 in series [16]. Moreover, the IC50 at 24 h in [3] is over 32 µg/mL. Also, the MIC in series [4] was determined as 2 µg/mL (≈ 3.88 µM); in [5], 8 µg/mL (≈ 15.5 µM); in series [6], 2 µg/mL (≈ 3.88 µM); in series [7], 0.25 µg/mL (≈ 0.485 µM); in series [8] it was 0.015 µg/mL (≈ 0.0291 µM); in series [9], 0.5 µg/mL (≈ 0.97 µM). The same molecule yielded a logD in [11] of 0.5. In addition, the microsomal CLint in [12] and in series [13] was under 3 µL/min/mg in each case. The solubility kinetic in [14] was found to be 86 µM (≈ 44.3 µg/mL). Moreover, the fraction unbound in [15] was over 0.3. For the same molecule, in series [17], the Activity is reported as 7.8 10^-8No_unit.

In the case of `COc1ccc2ccc(=O)n(CCN[C@H]3CC[C@H]4[C@H](C3)OC(=O)N4c3ccc4c(n3)NC(=O)CS4)c2n1`, the pIC50 was 6.98 in series [1], 7.62 in series [2], 5.40 in series [10] and under 4.00 in [16]. Moreover, in [3], the IC50 at 24 h worked out at 35 µg/mL (≈ 67 µM). The MIC is 0.015 µg/mL (≈ 0.0287 µM) in [4]; 2 µg/mL (≈ 3.83 µM) in series [5]; 1 µg/mL (≈ 1.91 µM) in series [6]; 0.12 µg/mL (≈ 0.23 µM) in series [7]; at most 0.002 µg/mL in [8]; at most 0.002 µg/mL in series [9]. Besides, the MIC in [18] came to 0.06 µg/mL (≈ 0.115 µM). The logD in series [11] was 2.58. Further, the values for the microsomal CLint in series [12] and in [13] were over 277 µL/min/mg and 267 µL/min/mg, respectively. Besides, the solubility kinetic in series [14] worked out at 54 µM (≈ 28.2 µg/mL). Moreover, the fraction unbound in series [15] amounted to 0.09.

With `COc1ccc2ccc(=O)n(CCN[C@@H]3CC[C@@H]4[C@H](C3)OC(=O)N4c3ccc4c(n3)NC(=O)CO4)c2n1`, the IC50 at 24 h in series [3] was over 32 µg/mL. For the same molecule, the MIC in [4] amounted to 1 µg/mL (≈ 1.97 µM); in [5] it was 8 µg/mL (≈ 15.8 µM); in series [6], 4 µg/mL (≈ 7.9 µM); in [7], 0.25 µg/mL (≈ 0.494 µM); in series [8], 0.004 µg/mL (≈ 0.0079 µM); in series [9], 0.008 µg/mL (≈ 0.0158 µM). This molecule showed a pIC50 in [10] of 5.30. The same molecule registered a logD in [11] of 2. The fraction unbound was 0.873 in series [19] and 0.965 in series [20].

`N#Cc1ccc2ccc(=O)n(CCN[C@H]3CC[C@H]4[C@H](C3)OC(=O)N4c3ccc4c(n3)NC(=O)CO4)c2c1`: the pIC50 in [1] was 7.52; in series [2], 6.64; in [10], under 4.00; in series [16], 4.14. Besides, in series [3], the IC50 at 24 h is over 128 µg/mL. The MIC in series [4] was 0.25 µg/mL (≈ 0.499 µM); in series [5], 2 µg/mL (≈ 4 µM); in series [6], 2 µg/mL (≈ 4 µM); in [7], 0.03 µg/mL (≈ 0.0599 µM); in series [8], at most 0.002 µg/mL; in series [9], 0.03 µg/mL (≈ 0.0599 µM). In series [18], the MIC came to 0.25 µg/mL (≈ 0.499 µM). In series [11], this molecule yielded a logD of 1.51. Further, the microsomal CLint in series [12] amounted to 125 µL/min/mg; in series [13], 59 µL/min/mg. Further, the solubility kinetic in series [14] was found to be 62 µM (≈ 31 µg/mL). The fraction unbound in series [15] was over 0.3. Further, in series [17], the Activity is <7.1 10^-9No_unit.
